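Tested at 5 concentrations; 48 h exposure; 96-well plates; endpoints linearly interpolated, else capped at highest concentration. GI50 is the concentration that inhibits growth by half.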 The source made the active and inactive calls. Cut-off read from the data, not from the text of the source: active = GI50 up to about 1.1 µM and inactive = higher.
What was measured:
Test in all cases: NCI-60 cell line screen, 48 h
[1] = system: CAKI-1
[2] = system: HCT-116
[3] = system: HCT-15
[4] = system: HL-60
[5] = system: HOP-62
[6] = system: LOX IMVI
[7] = system: M14
[8] = system: MOLT-4
[9] = system: NCI-H23
[10] = system: NCI-H522
[11] = system: OVCAR-8
[12] = system: RPMI-8226
[13] = system: SF-539
[14] = system: SK-OV-3
[15] = system: T47D
[16] = system: TK-10
[17] = system: U-251
[18] = system: UO-31
[19] = system: HT-29
[20] = system: IGROV-1

| Compound | GI50 [1] | GI50 [2] | GI50 [3] [µM] | GI50 [4] | GI50 [5] | GI50 [6] | GI50 [7] | GI50 [8] | GI50 [9] | GI50 [10] | GI50 [11] | GI50 [12] | GI50 [13] | GI50 [14] | GI50 [15] | GI50 [16] | GI50 [17] | GI50 [18] | GI50 [19] | GI50 [20] |
| --- | --- | --- | --- | --- | --- | --- | --- | --- | --- | --- | --- | --- | --- | --- | --- | --- | --- | --- | --- | --- |
| Clc1ccc(COC(Cn2ccnc2)c2ccc(Cl)cc2Cl)c(Cl)c1 (stereo not given) [MICONAZOLE] | 13.6 µM (inactive) | 5.12 µM (inactive) | 10.8 | 3.78 µM (inactive) | 13.5 µM (inactive) | 12.7 µM (inactive) | 12.6 µM (inactive) | 4.33 µM (inactive) | 11 µM (inactive) | 10 µM (inactive) | 13.9 µM (inactive) | 8.65 µM (inactive) | 13.8 µM (inactive) | 14.3 µM (inactive) | 7.89 µM (inactive) | 13.7 µM (inactive) | 11.7 µM (inactive) | 3.82 µM (inactive) |  |  |
| COC1C(O)C(O[C@H]2CC[C@@]3(C)C(CC[C@@H]4[C@@H]3CC[C@]3(C)[C@@H](C(C)OC5OC(CO)C(O)C(O)C5O)CC[C@]43O)C2)OC(C)C1OC1OC(CO)C(O)C(O)C1O (stereo not given in full) | > 100 µM (inactive) | > 100 µM (inactive) | > 100 |  | > 100 µM (inactive) | > 100 µM (inactive) | > 100 µM (inactive) | > 100 µM (inactive) | > 100 µM (inactive) | > 100 µM (inactive) | > 100 µM (inactive) | > 100 µM (inactive) | > 100 µM (inactive) | > 100 µM (inactive) | > 100 µM (inactive) | > 100 µM (inactive) | > 100 µM (inactive) | > 100 µM (inactive) | > 100 µM (inactive) | > 100 µM (inactive) |
| O/N=N/c1ccc([SH2]c2ccc3ccccc3c2)cn1 | 17.7 µM (inactive) | 15 µM (inactive) | 17.1 | 3.97 µM (inactive) | 15.1 µM (inactive) |  | 19.3 µM (inactive) | 1.62 µM (inactive) | 12.2 µM (inactive) | 17.5 µM (inactive) | 19.1 µM (inactive) |  | 41.9 µM (inactive) | 43.9 µM (inactive) | 20.6 µM (inactive) | 28.6 µM (inactive) | 19.3 µM (inactive) | 24.6 µM (inactive) | 34 µM (inactive) | 32.7 µM (inactive) |
| Nc1nc(O)c(N)c(NCCOCP(=O)(O)O)n1 | > 100 µM (inactive) | > 100 µM (inactive) | > 100 | > 84.1 µM (inactive) | > 100 µM (inactive) | > 100 µM (inactive) | > 100 µM (inactive) | > 100 µM (inactive) | > 57.8 µM (inactive) |  | > 100 µM (inactive) | > 100 µM (inactive) | > 100 µM (inactive) | > 100 µM (inactive) | > 100 µM (inactive) | > 100 µM (inactive) | > 100 µM (inactive) | > 100 µM (inactive) | > 100 µM (inactive) | > 100 µM (inactive) |
| O=c1[nH]c(-c2ccccc2)nc2c1sc1nc3ccccc3n12 | > 100 µM (inactive) | > 100 µM (inactive) | > 100 | > 100 µM (inactive) |  | > 100 µM (inactive) | > 100 µM (inactive) | 16.1 µM (inactive) | > 100 µM (inactive) | > 100 µM (inactive) | > 100 µM (inactive) | 1.52 µM (inactive) | > 100 µM (inactive) | > 100 µM (inactive) | > 100 µM (inactive) | > 100 µM (inactive) | > 87.7 µM (inactive) | > 100 µM (inactive) | > 100 µM (inactive) | > 100 µM (inactive) |
| O=C(NCc1cccnc1)NCc1cccnc1 | > 100 µM (inactive) | > 100 µM (inactive) | > 100 | > 100 µM (inactive) | > 100 µM (inactive) | > 100 µM (inactive) | > 100 µM (inactive) |  | > 100 µM (inactive) | > 100 µM (inactive) | > 100 µM (inactive) | > 100 µM (inactive) | > 100 µM (inactive) | > 100 µM (inactive) | > 100 µM (inactive) | > 100 µM (inactive) | > 100 µM (inactive) | > 100 µM (inactive) | > 100 µM (inactive) | > 100 µM (inactive) |
| CC1(C)O[C@@H]2[C@@H](COC(C)(C)O[C@H]2C2SCCCS2)O1 | > 100 µM (inactive) | > 100 µM (inactive) | > 100 |  | > 100 µM (inactive) |  | > 100 µM (inactive) | > 100 µM (inactive) | > 100 µM (inactive) | > 100 µM (inactive) | > 100 µM (inactive) | > 100 µM (inactive) | > 100 µM (inactive) | > 100 µM (inactive) | > 100 µM (inactive) |  | > 100 µM (inactive) | > 100 µM (inactive) | > 100 µM (inactive) |  |
| O=C(Oc1ccc(OC(Oc2ccccc2)c2ccccc2)cc1)c1ccccc1 (stereo not given) | > 10 µM (inactive) | 16.1 µM (inactive) | > 10 | 16.3 µM (inactive) | 13.9 µM (inactive) | 22.1 µM (inactive) | 8.38 µM (inactive) | 16 µM (inactive) | 6.21 µM (inactive) | 49.2 µM (inactive) | > 31.6 µM (inactive) | 13.2 µM (inactive) |  | 27.2 µM (inactive) | 50 µM (inactive) | 31.3 µM (inactive) | > 75.7 µM (inactive) | 16 µM (inactive) | 22.9 µM (inactive) | 15.2 µM (inactive) |
| CN(C)/N=N/c1nc2c(c(=O)n(C)c(=O)n2C)n1CC(O)CO (stereo not given) | > 100 µM (inactive) | > 100 µM (inactive) | > 100 | > 100 µM (inactive) | > 100 µM (inactive) |  | > 100 µM (inactive) | > 100 µM (inactive) | > 100 µM (inactive) | > 100 µM (inactive) | > 100 µM (inactive) | > 100 µM (inactive) |  | > 100 µM (inactive) | 38.7 µM (inactive) | > 100 µM (inactive) | > 100 µM (inactive) | > 100 µM (inactive) | > 100 µM (inactive) | > 100 µM (inactive) |
| Nc1ncn2c(n1)nc1ccccc12 | > 100 µM (inactive) | > 100 µM (inactive) | > 100 | > 100 µM (inactive) |  |  | > 100 µM (inactive) | > 100 µM (inactive) | > 100 µM (inactive) | > 100 µM (inactive) | > 100 µM (inactive) | > 100 µM (inactive) | > 100 µM (inactive) | > 100 µM (inactive) | > 100 µM (inactive) | > 100 µM (inactive) | > 100 µM (inactive) | > 100 µM (inactive) | > 100 µM (inactive) | > 100 µM (inactive) |
| COC(=O)c1sc2c(=O)c(C(=O)OC)c(C(=O)OC)sc2c(=O)c1C(=O)OC | > 100 µM (inactive) | > 100 µM (inactive) | > 100 |  | > 100 µM (inactive) | 73.3 µM (inactive) | > 100 µM (inactive) | 5.85 µM (inactive) | > 100 µM (inactive) | 21.5 µM (inactive) | > 100 µM (inactive) | > 100 µM (inactive) | > 100 µM (inactive) | > 100 µM (inactive) | > 100 µM (inactive) | > 100 µM (inactive) | > 80.9 µM (inactive) | > 100 µM (inactive) | > 100 µM (inactive) | > 67.8 µM (inactive) |
| Cc1cc2c(cc1O)CC[C@@H]1[C@@H]2CC[C@]2(C)[C@@H](O)CC[C@@H]12 | 16.9 µM (inactive) |  | 4.08 | 1.73 µM (inactive) |  | 11 µM (inactive) | 7.24 µM (inactive) | 3.68 µM (inactive) | 13.6 µM (inactive) | 7.45 µM (inactive) | 19.1 µM (inactive) | 4.74 µM (inactive) |  | 11.5 µM (inactive) | 19.3 µM (inactive) | 24 µM (inactive) | 5.73 µM (inactive) | 14.8 µM (inactive) | 17.1 µM (inactive) | 15.8 µM (inactive) |
| O=C1C(Cl)=C(N[C@@H](Cc2ccccc2)C(=O)OCc2ccccc2)C(=O)c2c(O)ccc(O)c21 | > 10 µM (inactive) | 1.65 µM (inactive) | 1.19 | 2.07 µM (inactive) | 3.52 µM (inactive) | 2.99 µM (inactive) | 3.8 µM (inactive) |  | 4.42 µM (inactive) | 6.41 µM (inactive) | 3.73 µM (inactive) | > 10 µM (inactive) | 2.42 µM (inactive) | > 10 µM (inactive) | > 10 µM (inactive) | > 10 µM (inactive) | 3.01 µM (inactive) |  | 4 µM (inactive) | 4.08 µM (inactive) |
| O=C(Cn1ccnc1[N+](=O)[O-])NCCO [ETANIDAZOLE] | > 100 µM (inactive) | > 100 µM (inactive) | > 100 | > 100 µM (inactive) | > 100 µM (inactive) | > 100 µM (inactive) | > 100 µM (inactive) |  | > 100 µM (inactive) | > 100 µM (inactive) | > 100 µM (inactive) | > 100 µM (inactive) | > 100 µM (inactive) | > 100 µM (inactive) | > 100 µM (inactive) | > 100 µM (inactive) | > 100 µM (inactive) | > 100 µM (inactive) | > 100 µM (inactive) | > 100 µM (inactive) |
| COc1cc2c(cc1OCCCCCOc1cc3c(cc1OC)C(=O)N1CCC[C@H]1CN3)N=C[C@@H]1CCCN1C2=O | 9.48 µM (inactive) | 4.85 µM (inactive) | 13.7 | 4.3 µM (inactive) | 2.15 µM (inactive) | 1.34 µM (inactive) | 2.77 µM (inactive) | 2.4 µM (inactive) | 4.8 µM (inactive) | 1.36 µM (inactive) | 2.58 µM (inactive) |  | 3.18 µM (inactive) | 30.5 µM (inactive) | 3.5 µM (inactive) | 19.5 µM (inactive) | 1.49 µM (inactive) | 12.3 µM (inactive) | 5.04 µM (inactive) | 3.33 µM (inactive) |
